{"source": "ChEMBL document CHEMBL4808238", "about": "“Small Molecule Inhibitors of KRAS Mutant as a Therapeutic Strategy for the Treatment of Cancer” (ACS Med Chem Lett, 2021)", "note": "pIC50: −log10 of the molar value."}
{"target": "GTPase KRas (Homo sapiens, UniProt P01116, G12C)", "sequence (P01116 whole entry G12C)": "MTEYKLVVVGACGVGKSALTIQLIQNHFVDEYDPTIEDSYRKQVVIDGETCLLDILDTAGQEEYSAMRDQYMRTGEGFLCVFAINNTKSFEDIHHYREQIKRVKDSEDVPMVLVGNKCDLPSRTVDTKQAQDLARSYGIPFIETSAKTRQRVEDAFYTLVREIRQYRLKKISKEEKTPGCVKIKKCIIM", "experiment": "Inhibition of biotinylated KRAS G12C mutant (unknown origin) assessed as inhibition of SOS-catalyzed nucleotide exchange preincubated for 60 mins followed by addition of human recombinant SOS protein and unlabeled GTP and measured after 60 mins by TR-FRET analysis"}
{"smiles": "C=CC(=O)N1CCN(c2cc(C(=O)N[C@@H]3CCC[C@H]3N(C)C)nc3c2CCN(c2cccc4cccc(C)c24)C3)C[C@@H]1CC#N", "pIC50": 9.00}
{"smiles": "C=CC(=O)N1CCN(c2cc(C(=O)NC(C)CN3CCC(C)(O)C3)nc3c2CCN(c2cccc4cccc(C)c24)C3)C[C@@H]1CC#N", "note": "(stereo in doubt; 75)", "pIC50": 8.14}
{"smiles": "C=C(F)C(=O)N1CCN(c2cc(C(=O)NC(C)CN3CCC(C)(O)C3)nc3c2CCN(c2cccc4cccc(C)c24)C3)C[C@@H]1CC#N", "note": "(stereo partly specified)", "pIC50": 8.30}
{"smiles": "C=CC(=O)N1CCN(c2cc(C(=O)N[C@H](C)CN(C)C)nc3c2CCN(c2c(Cl)c(C)cc4[nH]ncc24)C3)C[C@@H]1CC#N", "pIC50": 9.05}
{"smiles": "C=CC(=O)N1CCN(c2cc(C(=O)NC(C)CN3CCC(C)(O)C3)nc3c2CCN(c2cccc4cccc(C)c24)C3)C[C@@H]1CC#N", "note": "(stereo in doubt; 76)", "pIC50": 8.21}
{"smiles": "C=C(F)C(=O)N1CCN(c2cc(C(=O)N[C@H](C)CN(C)C)nc3c2CCN(c2cccc4cccc(C)c24)C3)C[C@@H]1CC#N", "pIC50": 8.08}
{"smiles": "C=CC(=O)N1CCN(c2cc(C(=O)N[C@H](C)CN3CC(C)(O)C3)nc3c2CCN(c2cccc4cccc(C)c24)C3)C[C@@H]1CC#N", "pIC50": 8.66}
{"smiles": "C=CC(=O)N1CCN(c2cc(C(=O)NC[C@H]3CCCN3)nc3c2CCN(c2cccc4cccc(C)c24)C3)C[C@@H]1CC#N", "pIC50": 8.21}
{"smiles": "C=CC(=O)N1CCN(c2cc(C(=O)NC3(CC)CCNC3)nc3c2CCN(c2cccc4cccc(C)c24)C3)C[C@@H]1CC#N", "note": "(stereo partly specified)", "pIC50": 8.35}
{"smiles": "C=CC(=O)N1CCN(c2cc(C(=O)NC3(C)CCCNC3)nc3c2CCN(c2cccc4cccc(C)c24)C3)C[C@@H]1CC#N", "note": "(stereo partly specified)", "pIC50": 8.27}
{"smiles": "C=CC(=O)N1CCN(c2cc(C(=O)NCC3CCCCN3)nc3c2CCN(c2cccc4cccc(C)c24)C3)C[C@@H]1CC#N", "note": "(stereo partly specified)", "pIC50": 8.08}
